Source: paper PMC5540273, “Progress towards a public chemogenomic set for protein kinases and a call for contributions” (PLoS ONE, 2017)

Experiments:
Experiment in all cases: KINOMEscan competition binding
BMPR1A = BMPR1A (Homo sapiens, UniProt P36894); conditions: read-out: %Inh BMPR1A
CDC2L2 = molecular target: T1, CDC2L2 (Homo sapiens, UniProt Q9UQ88); conditions: read-out: %Inh CDC2L2
T1 sequence (Q9UQ88 1-783): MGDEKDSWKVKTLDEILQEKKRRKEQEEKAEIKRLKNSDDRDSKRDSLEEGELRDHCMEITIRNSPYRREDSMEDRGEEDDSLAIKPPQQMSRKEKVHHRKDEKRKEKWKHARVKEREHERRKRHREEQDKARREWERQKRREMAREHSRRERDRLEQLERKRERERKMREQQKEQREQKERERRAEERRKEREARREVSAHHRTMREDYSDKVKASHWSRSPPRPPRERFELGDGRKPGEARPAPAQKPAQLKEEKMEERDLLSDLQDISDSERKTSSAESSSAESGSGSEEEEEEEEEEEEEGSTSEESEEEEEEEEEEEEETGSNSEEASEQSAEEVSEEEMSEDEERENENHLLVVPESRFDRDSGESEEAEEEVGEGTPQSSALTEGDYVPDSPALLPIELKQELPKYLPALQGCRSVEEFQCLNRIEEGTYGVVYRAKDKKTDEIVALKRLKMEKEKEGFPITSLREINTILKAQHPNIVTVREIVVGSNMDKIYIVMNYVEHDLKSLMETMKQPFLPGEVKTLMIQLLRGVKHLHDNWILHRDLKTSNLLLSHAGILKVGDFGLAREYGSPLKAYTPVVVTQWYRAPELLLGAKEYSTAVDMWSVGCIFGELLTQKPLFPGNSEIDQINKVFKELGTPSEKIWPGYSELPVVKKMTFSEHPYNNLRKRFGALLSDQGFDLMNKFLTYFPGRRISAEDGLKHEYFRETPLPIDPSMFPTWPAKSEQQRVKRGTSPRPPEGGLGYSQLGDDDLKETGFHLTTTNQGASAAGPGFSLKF

ACVR1B = molecular target: T2, ACVR1B (Homo sapiens, UniProt P36896); conditions: read-out: %Inh ACVR1B
T2 sequence (P36896 24-505): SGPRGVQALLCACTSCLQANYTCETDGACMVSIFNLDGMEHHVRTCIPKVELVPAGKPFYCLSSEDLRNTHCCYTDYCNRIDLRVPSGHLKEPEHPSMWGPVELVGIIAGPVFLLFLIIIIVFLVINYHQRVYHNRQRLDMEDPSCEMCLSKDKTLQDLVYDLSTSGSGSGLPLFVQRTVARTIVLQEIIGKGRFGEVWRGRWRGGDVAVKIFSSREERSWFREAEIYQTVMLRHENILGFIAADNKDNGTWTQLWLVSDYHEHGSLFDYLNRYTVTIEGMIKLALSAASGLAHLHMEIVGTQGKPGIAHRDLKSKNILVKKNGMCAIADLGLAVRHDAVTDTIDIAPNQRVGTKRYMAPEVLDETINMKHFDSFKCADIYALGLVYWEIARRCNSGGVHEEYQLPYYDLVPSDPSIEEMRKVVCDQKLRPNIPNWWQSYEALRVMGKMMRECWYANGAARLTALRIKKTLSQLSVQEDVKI

ERK2 = ERK2 (Homo sapiens, UniProt P28482); conditions: read-out: %Inh ERK2
ACVR2B = ACVR2B (Homo sapiens, UniProt Q13705); conditions: read-out: %Inh ACVR2B
CAMK1B = CAMK1B (Homo sapiens, UniProt Q6P2M8); conditions: read-out: %Inh CAMK1B
HIPK1 = HIPK1 (Homo sapiens, UniProt Q86Z02); conditions: read-out: %Inh HIPK1
CDK11 = CDK11 (Homo sapiens, UniProt Q9BWU1); conditions: read-out: %Inh CDK11
LIMK1 = LIMK1 (Homo sapiens, UniProt P53667); conditions: read-out: %Inh LIMK1
DRAK2 = molecular target: T3, DRAK2 (Homo sapiens, UniProt O94768); conditions: read-out: %Inh DRAK2
T3 sequence (O94768 1-372): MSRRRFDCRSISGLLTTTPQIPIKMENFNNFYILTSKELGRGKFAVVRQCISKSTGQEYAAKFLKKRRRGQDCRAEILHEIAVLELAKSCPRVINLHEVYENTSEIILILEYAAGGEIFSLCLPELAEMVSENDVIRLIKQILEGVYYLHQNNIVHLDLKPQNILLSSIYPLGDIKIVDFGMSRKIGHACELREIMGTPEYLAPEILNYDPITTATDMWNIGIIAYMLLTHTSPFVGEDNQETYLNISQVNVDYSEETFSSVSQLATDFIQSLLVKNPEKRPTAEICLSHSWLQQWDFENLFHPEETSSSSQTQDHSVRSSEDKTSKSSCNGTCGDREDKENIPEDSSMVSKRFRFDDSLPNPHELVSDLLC

DRAK1 = molecular target: T4, DRAK1 (Homo sapiens, UniProt Q9UEE5); conditions: read-out: %Inh DRAK1
T4 sequence (Q9UEE5 1-414): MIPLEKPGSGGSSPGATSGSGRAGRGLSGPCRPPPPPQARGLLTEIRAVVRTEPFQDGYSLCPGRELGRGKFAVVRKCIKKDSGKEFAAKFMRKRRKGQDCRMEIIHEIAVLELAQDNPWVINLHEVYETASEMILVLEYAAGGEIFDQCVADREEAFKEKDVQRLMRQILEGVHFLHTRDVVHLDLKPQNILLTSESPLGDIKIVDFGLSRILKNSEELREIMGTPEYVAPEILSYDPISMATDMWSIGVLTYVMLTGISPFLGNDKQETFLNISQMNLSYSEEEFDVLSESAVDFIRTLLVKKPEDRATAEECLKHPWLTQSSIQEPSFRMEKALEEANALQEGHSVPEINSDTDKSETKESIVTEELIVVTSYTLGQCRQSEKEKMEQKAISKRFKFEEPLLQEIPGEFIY

HIPK2 = HIPK2 (Homo sapiens, UniProt Q9H2X6); conditions: read-out: %Inh HIPK2
Sequence of HIPK2 (Q9H2X6 whole entry): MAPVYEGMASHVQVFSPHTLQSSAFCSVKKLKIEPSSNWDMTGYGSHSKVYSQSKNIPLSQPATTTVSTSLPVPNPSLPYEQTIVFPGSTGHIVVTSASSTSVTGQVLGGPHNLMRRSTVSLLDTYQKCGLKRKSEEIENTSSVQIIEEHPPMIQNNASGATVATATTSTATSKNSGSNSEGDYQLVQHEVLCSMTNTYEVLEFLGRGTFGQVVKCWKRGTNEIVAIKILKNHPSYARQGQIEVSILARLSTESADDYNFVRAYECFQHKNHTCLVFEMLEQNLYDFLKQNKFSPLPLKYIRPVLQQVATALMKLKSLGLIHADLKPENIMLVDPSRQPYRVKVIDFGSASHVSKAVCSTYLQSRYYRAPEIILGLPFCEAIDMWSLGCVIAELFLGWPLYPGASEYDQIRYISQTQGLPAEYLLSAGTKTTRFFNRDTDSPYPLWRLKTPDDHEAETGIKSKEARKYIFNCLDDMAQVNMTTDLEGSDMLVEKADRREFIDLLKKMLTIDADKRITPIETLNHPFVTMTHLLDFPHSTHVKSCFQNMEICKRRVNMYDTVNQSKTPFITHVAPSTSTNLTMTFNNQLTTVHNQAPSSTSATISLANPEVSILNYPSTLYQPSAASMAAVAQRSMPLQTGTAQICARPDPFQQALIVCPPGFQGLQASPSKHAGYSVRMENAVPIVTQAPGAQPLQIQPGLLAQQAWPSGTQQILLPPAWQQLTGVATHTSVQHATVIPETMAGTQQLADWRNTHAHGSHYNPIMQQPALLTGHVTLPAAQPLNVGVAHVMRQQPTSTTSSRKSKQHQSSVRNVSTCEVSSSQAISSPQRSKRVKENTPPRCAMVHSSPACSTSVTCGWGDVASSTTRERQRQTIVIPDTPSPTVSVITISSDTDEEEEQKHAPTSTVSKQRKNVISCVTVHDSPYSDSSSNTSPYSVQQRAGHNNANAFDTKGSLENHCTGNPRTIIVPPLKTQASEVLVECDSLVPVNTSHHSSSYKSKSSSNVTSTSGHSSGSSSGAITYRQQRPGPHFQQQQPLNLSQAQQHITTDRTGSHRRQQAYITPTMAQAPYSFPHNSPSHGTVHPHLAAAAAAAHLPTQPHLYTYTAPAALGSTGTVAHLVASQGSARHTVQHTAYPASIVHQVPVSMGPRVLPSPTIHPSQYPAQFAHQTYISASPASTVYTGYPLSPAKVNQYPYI

Sequence of LIMK1 (P53667 whole entry): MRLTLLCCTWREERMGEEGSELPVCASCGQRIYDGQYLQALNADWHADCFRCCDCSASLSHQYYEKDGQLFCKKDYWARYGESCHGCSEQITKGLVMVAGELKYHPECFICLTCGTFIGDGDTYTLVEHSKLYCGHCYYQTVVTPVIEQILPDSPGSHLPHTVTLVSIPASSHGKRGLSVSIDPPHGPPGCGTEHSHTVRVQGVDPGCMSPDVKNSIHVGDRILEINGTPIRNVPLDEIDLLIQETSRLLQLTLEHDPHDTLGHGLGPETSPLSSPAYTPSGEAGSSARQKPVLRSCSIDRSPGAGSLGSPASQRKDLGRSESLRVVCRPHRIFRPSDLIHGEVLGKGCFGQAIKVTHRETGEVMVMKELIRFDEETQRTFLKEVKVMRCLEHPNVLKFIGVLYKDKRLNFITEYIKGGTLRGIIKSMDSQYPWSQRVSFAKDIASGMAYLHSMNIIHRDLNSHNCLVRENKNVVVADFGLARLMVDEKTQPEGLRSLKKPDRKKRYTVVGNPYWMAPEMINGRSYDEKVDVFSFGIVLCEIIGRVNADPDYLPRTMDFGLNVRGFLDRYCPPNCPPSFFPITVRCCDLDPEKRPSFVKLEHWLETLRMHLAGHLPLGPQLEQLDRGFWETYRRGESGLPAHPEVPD
Sequence of HIPK1 (Q86Z02 whole entry): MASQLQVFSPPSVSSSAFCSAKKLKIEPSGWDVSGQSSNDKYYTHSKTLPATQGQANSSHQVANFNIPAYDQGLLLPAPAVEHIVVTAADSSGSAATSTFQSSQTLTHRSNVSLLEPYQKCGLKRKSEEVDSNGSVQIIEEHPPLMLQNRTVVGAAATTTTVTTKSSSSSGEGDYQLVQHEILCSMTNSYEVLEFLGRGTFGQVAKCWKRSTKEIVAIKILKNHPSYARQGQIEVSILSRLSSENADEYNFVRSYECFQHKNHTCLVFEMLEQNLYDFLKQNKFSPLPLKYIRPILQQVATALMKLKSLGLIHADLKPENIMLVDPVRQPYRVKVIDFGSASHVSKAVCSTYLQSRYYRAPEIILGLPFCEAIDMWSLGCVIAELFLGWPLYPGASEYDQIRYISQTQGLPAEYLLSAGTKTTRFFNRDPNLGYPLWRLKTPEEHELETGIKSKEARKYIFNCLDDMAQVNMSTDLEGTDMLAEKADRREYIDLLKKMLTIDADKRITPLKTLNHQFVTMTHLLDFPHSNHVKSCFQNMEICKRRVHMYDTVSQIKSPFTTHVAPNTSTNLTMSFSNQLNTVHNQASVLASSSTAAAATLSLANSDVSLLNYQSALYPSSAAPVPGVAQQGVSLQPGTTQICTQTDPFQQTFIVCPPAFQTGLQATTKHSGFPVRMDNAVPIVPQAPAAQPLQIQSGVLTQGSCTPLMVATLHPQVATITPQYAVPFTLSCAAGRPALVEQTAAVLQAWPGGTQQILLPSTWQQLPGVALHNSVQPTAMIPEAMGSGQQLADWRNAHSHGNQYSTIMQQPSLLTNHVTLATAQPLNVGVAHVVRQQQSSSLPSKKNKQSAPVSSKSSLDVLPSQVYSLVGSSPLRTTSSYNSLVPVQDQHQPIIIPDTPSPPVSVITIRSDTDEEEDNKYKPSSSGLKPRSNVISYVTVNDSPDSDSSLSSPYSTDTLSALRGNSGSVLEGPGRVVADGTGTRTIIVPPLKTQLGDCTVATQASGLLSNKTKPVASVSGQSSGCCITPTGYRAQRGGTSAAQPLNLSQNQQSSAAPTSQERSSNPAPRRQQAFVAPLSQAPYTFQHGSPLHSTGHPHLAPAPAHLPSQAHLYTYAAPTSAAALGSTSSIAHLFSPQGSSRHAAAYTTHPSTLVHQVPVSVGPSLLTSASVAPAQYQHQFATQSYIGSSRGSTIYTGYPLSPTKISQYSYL
Sequence of CAMK1B (Q6P2M8 whole entry): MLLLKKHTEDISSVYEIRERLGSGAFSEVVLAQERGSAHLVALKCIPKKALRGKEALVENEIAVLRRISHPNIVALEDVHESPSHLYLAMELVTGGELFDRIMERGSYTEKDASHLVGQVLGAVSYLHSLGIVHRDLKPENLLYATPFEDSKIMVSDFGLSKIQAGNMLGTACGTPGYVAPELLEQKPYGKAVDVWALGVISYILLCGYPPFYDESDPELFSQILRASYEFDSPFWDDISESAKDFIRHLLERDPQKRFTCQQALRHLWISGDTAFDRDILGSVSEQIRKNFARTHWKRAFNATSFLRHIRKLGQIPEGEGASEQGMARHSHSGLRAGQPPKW
Sequence of ACVR2B (Q13705 19-512): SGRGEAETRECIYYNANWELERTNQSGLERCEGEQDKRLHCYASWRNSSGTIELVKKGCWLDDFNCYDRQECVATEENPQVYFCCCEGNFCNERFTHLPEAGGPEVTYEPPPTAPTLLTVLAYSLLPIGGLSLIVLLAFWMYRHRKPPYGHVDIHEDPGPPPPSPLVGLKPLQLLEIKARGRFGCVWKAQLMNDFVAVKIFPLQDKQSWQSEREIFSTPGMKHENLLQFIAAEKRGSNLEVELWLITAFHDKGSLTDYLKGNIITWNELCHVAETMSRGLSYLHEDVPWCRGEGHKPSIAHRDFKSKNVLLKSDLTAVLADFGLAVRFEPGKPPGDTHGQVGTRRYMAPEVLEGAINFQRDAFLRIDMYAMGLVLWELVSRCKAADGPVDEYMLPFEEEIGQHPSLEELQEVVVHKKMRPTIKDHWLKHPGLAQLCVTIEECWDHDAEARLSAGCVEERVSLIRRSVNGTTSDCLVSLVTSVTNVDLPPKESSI
Sequence of CDK11 (Q9BWU1 whole entry): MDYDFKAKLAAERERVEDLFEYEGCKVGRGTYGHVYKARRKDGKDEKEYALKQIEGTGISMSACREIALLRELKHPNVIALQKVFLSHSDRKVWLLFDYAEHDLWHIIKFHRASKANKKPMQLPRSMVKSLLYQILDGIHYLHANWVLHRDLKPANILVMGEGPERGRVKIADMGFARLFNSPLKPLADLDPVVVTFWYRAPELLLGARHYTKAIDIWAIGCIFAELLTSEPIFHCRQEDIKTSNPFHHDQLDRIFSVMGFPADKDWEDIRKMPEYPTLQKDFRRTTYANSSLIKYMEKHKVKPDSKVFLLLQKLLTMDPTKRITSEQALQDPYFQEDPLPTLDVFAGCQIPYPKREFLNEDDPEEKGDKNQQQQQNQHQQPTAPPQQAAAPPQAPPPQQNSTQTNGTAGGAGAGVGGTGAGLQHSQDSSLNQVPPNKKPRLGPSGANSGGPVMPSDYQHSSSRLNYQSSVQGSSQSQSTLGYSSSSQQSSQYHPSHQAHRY
Sequence of BMPR1A (P36894 24-532): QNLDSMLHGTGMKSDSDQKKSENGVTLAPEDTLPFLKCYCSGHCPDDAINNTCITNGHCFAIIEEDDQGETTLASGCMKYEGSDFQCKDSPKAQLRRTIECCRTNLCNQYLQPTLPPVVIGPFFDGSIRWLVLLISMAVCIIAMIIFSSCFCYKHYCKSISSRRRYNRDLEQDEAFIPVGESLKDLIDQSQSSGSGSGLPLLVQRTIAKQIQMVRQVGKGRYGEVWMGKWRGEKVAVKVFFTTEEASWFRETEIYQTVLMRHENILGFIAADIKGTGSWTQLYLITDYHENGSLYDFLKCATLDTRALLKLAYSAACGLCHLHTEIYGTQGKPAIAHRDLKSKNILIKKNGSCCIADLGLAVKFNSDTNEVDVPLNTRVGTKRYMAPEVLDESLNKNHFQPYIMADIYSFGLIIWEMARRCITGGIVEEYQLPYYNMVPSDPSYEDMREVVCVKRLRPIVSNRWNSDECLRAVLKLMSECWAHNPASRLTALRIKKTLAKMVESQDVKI

Cn1cc(-c2cnc(N)c3c(-c4ccc5c(c4)CCN5C(=O)Cc4ccccc4)csc23)cn1 [UNC10225012A] gave an inhibition at 1 µM (BMPR1A) of 1%, an inhibition at 1 µM (CDC2L2) of 1% and an inhibition at 1 µM (ACVR1B) of 9%. For the same compound, the inhibition at 1 µM (ERK2) was 0%, the inhibition at 1 µM (ACVR2B) was 0% and the inhibition at 1 µM (CAMK1B) was 0%. The inhibition at 1 µM (HIPK1) was 21%, the inhibition at 1 µM (CDK11) was 18% and the inhibition at 1 µM (LIMK1) was 49%. It also gave an inhibition at 1 µM (DRAK2) of 9%, an inhibition at 1 µM (DRAK1) of 0% and an inhibition at 1 µM (HIPK2) of 0%.
Work on CS(=O)(=O)Cc1ccc(Nc2nccc(-c3c(-c4cccc(NC(=O)C5CCCCC5)c4)nn4ncccc34)n2)cc1 [UNC10225159A] yielded an inhibition at 1 µM (BMPR1A) of 0%, an inhibition at 1 µM (CDC2L2) of 27% and an inhibition at 1 µM (ACVR1B) of 0%. It also gave an inhibition at 1 µM (ERK2) of 0%, an inhibition at 1 µM (ACVR2B) of 0% and an inhibition at 1 µM (CAMK1B) of 0%. It also gave an inhibition at 1 µM (HIPK1) of 5%, an inhibition at 1 µM (CDK11) of 0% and an inhibition at 1 µM (LIMK1) of 22%. For the same compound, the inhibition at 1 µM (DRAK2) was 0%, the inhibition at 1 µM (DRAK1) was 0% and the inhibition at 1 µM (HIPK2) was 14%.
With Cc1ccc(NC(=O)Nc2cccc(C(F)(F)F)c2)cc1 [UNC10225187A] the inhibition at 1 µM (BMPR1A) was 94.6%, the inhibition at 1 µM (CDC2L2) was 0% and the inhibition at 1 µM (ACVR1B) was 85%. For the same compound, the inhibition at 1 µM (ERK2) was 0%, the inhibition at 1 µM (ACVR2B) was 0% and the inhibition at 1 µM (CAMK1B) was 0%. It also gave an inhibition at 1 µM (HIPK1) of 8%, an inhibition at 1 µM (CDK11) of 20% and an inhibition at 1 µM (LIMK1) of 0%. The inhibition at 1 µM (DRAK2) was 0%, the inhibition at 1 µM (DRAK1) was 15% and the inhibition at 1 µM (HIPK2) was 0%.
Compound COc1cccc(OC)c1C(=O)Nc1cccc(-c2nn3ccccc3c2-c2ccnc(Nc3cccc(F)c3)n2)c1 [UNC10225310A] has an inhibition at 1 µM (BMPR1A) of 9%, an inhibition at 1 µM (CDC2L2) of 0% and an inhibition at 1 µM (ACVR1B) of 15%. It also gave an inhibition at 1 µM (ERK2) of 6%, an inhibition at 1 µM (ACVR2B) of 27% and an inhibition at 1 µM (CAMK1B) of 0%. The inhibition at 1 µM (HIPK1) was 31%, the inhibition at 1 µM (CDK11) was 0% and the inhibition at 1 µM (LIMK1) was 31%. The inhibition at 1 µM (DRAK2) was 12%, the inhibition at 1 µM (DRAK1) was 12% and the inhibition at 1 µM (HIPK2) was 0%.
For O=c1cc(N2CCOCC2)nc2n(Cc3cccc(Cl)c3Cl)c(C3CC3)nn12 [UNC10225469A], the inhibition at 1 µM (BMPR1A) was 15%, the inhibition at 1 µM (CDC2L2) was 0% and the inhibition at 1 µM (ACVR1B) was 0%. The inhibition at 1 µM (ERK2) was 11%, the inhibition at 1 µM (ACVR2B) was 0% and the inhibition at 1 µM (CAMK1B) was 0%. For the same compound, the inhibition at 1 µM (HIPK1) was 16%, the inhibition at 1 µM (CDK11) was 0% and the inhibition at 1 µM (LIMK1) was 9%. It also gave an inhibition at 1 µM (DRAK2) of 9%, an inhibition at 1 µM (DRAK1) of 11% and an inhibition at 1 µM (HIPK2) of 0%.
